Experimental data from patent EP4635500A1, “THERAPEUTIC AGENT FOR BACTERIAL INFECTION” (Sumitomo Pharma Co., Ltd., priority 2022, dated 2024).
Values after ≈ are worked out from the molar mass of the structure shown. Values joined by “and” are separate entries in the source; they are usually repeats but may differ in a detail not shown here. Identical values can stand only once. Like-named read-outs stand apart in the source and are kept apart here.

Assays:
53 CRE and CPE strains = experiment: MICrange, MIC50, MIC80, MIC90 for 53 bacterial isolates (Example 5, Table 5); type: cell-based
Enterobacterales = experiment: MIC, broth microdilution, CDC/FDA Antibiotic Resistance Isolate Bank (Example 7, Tables 8, 11, 12); type: cell-based

C[C@@H](O)[C@H]1C(=O)N2C(C(=O)O)=C(S[C@@H]3CN[C@H](C(=O)N(C)C)C3)[C@H](C)[C@H]12 [MEPM, meropenem]
MIC90 (53 CRE and CPE strains; 53 CRE and CPE strains, read-out: MIC90): 64 µg/mL (≈ 167 µM) | MIC50 (53 CRE and CPE strains; 53 bacterial isolates): 4 µg/mL (≈ 10.4 µM) | MIC80 (53 CRE and CPE strains; 53 bacterial isolates): 16 µg/mL (≈ 41.7 µM) | MIC90 (53 CRE and CPE strains; 53 bacterial isolates): 64 µg/mL (≈ 167 µM) | MICrange (53 CRE and CPE strains; 53 bacterial isolates): 0.06 to 256 µg/mL | MIC90 (Enterobacterales): 32 µg/mL and >32 µg/mL | MIC (Enterobacterales; Citrobacter freundii): 16 µg/mL (≈ 41.7 µM) | MIC (Enterobacterales; Enterobacte (name cut at the end of the table), KUB No. 5629, AR Bank # 132, NMC (cut), read-out: MIC): 2 µg/mL (≈ 5.22 µM) | MIC (Enterobacterales; Enterobacter cloacae, Enterobacter cloacae complex, KUB No. 5661, AR Bank# 164, NMC-A, read-out: MIC): 32 µg/mL (≈ 83.4 µM) | MIC (Enterobacterales; Enterobacter cloacae, KUB No. 5529, AR Bank # 32, KPC-3, read-out: MIC): 0.12 µg/mL (≈ 0.313 µM) | MIC (Enterobacterales; Enterobacter cloacae, KUB No. 5535, AR Bank # 38, NDM-1, read-out: MIC): > 32 µg/mL | MIC (Enterobacterales; Enterobacter cloacae, KUB No. 5547, AR Bank # 50, KPC-4, read-out: MIC): 0.5 µg/mL (≈ 1.3 µM) | MIC (Enterobacterales; Enterobacter cloacae, KUB No. 5550, AR Bank # 53, KPC-3, read-out: MIC): 2 µg/mL (≈ 5.22 µM) | MIC (Enterobacterales; Enterobacter cloacae, KUB No. 5557, AR Bank # 60, no carbapenemase gene, read-out: MIC): ≤ 0.06 µg/mL | MIC (Enterobacterales; Enterobacter cloacae, KUB No. 5562, AR Bank # 65, no carbapenemase gene, read-out: MIC): 0.25 µg/mL (≈ 0.652 µM) | MIC (Enterobacterales; Enterobacter cloacae, KUB No. 5569, AR Bank # 72, no carbapenemase gene, read-out: MIC): 0.12 µg/mL (≈ 0.313 µM) | MIC (Enterobacterales; Enterobacter cloacae, KUB No. 5570, AR Bank # 73, no carbapenemase gene, read-out: MIC): ≤ 0.06 µg/mL | MIC (Enterobacterales; Enterobacter cloacae, KUB No. 5590, AR Bank # 93, KPC-6, read-out: MIC): 1 µg/mL (≈ 2.61 µM) | MIC (Enterobacterales; Enterobacter cloacae, KUB No. 5633, AR Bank# 136, KPC-3, read-out: MIC): 8 µg/mL (≈ 20.9 µM) | MIC (Enterobacterales; Enterobacter cloacae, KUB No. 5651, AR Bank# 154, VIM-1, read-out: MIC): 4 µg/mL (≈ 10.4 µM) | MIC (Enterobacterales; Enterobacter cloacae, KUB No. 5660, AR Bank# 163, KPC-2, read-out: MIC): 4 µg/mL (≈ 10.4 µM) | MIC (Enterobacterales; Enterobacter cloacae, KUB No. 5761, AR Bank# 365, KPC-2, read-out: MIC): 2 µg/mL (≈ 5.22 µM) | MIC (Enterobacterales; Enterobacter cloacae, KUB No. 5762, AR Bank# 366, KPC-2, read-out: MIC): 1 µg/mL (≈ 2.61 µM) | MIC (Enterobacterales; Enterobacter cloacae, KUB No. 5763, AR Bank# 367, no carbapenemase genes, read-out: MIC): 0.5 µg/mL (≈ 1.3 µM) | MIC (Enterobacterales; Enterobacter cloacae, KUB No. 5778, AR Bank# 432, no carbapenemase genes, read-out: MIC): 0.12 µg/mL (≈ 0.313 µM) | MIC (Enterobacterales; Enterobacter cloacae, KUB No. 5792, AR Bank# 448, NDM-1, read-out: MIC): 16 µg/mL (≈ 41.7 µM) | MIC (Enterobacterales; Enterobacter cloacae, KUB No. 5807, AR Bank# 501, VIM-1, read-out: MIC): 0.5 µg/mL (≈ 1.3 µM) | MIC (Enterobacterales; Enterobacter cloacae, KUB No. 5808, AR Bank# 502, IMP-8, read-out: MIC): 4 µg/mL (≈ 10.4 µM) | MIC (Enterobacterales; Escherichia coli, KUB No. 5558, AR Bank # 61, KPC-3 (line continued in Table 8-2), read-out: MIC): 1 µg/mL (≈ 2.61 µM) | MIC (Enterobacterales; Escherichia coli, KUB No. 5611, AR Bank # 114, KPC-3, read-out: MIC): 2 µg/mL (≈ 5.22 µM) | MIC (Enterobacterales; Escherichia coli, KUB No. 5634, AR Bank# 137, NDM-6, read-out: MIC): 32 µg/mL (≈ 83.4 µM) | MIC (Enterobacterales; Escherichia coli, KUB No. 5646, AR Bank# 149, NDM-7, read-out: MIC): 8 µg/mL (≈ 20.9 µM) | MIC (Enterobacterales; Escherichia coli, KUB No. 5647, AR Bank# 150, NDM-5, read-out: MIC): > 32 µg/mL | MIC (Enterobacterales; Escherichia coli, KUB No. 5648, AR Bank# 151, NDM-5, read-out: MIC): 8 µg/mL (≈ 20.9 µM) | MIC (Enterobacterales; Escherichia coli, KUB No. 5659, AR Bank# 162, NDM-7, read-out: MIC): 32 µg/mL (≈ 83.4 µM) | MIC (Enterobacterales; Escherichia coli, KUB No. 5764, AR Bank# 368, no carbapenemase genes, read-out: MIC): ≤ 0.06 µg/mL | MIC (Enterobacterales; Escherichia coli, KUB No. 5765, AR Bank# 369, no carbapenemase genes, read-out: MIC): ≤ 0.06 µg/mL | MIC (Enterobacterales; Escherichia coli, KUB No. 5766, AR Bank# 370, no carbapenemase genes, read-out: MIC): ≤ 0.06 µg/mL | MIC (Enterobacterales; Escherichia coli, KUB No. 5767, AR Bank# 371, no carbapenemase genes, read-out: MIC): ≤ 0.06 µg/mL | MIC (Enterobacterales; Escherichia coli, KUB No. 5768, AR Bank# 372, no carbapenemase genes, read-out: MIC): ≤ 0.06 µg/mL | MIC (Enterobacterales; Escherichia coli, KUB No. 5769, AR Bank# 373, no carbapenemase genes, read-out: MIC): ≤ 0.06 µg/mL | MIC (Enterobacterales; Escherichia coli, KUB No. 5770, AR Bank# 374, no carbapenemase genes, read-out: MIC): ≤ 0.06 µg/mL | MIC (Enterobacterales; Escherichia coli, KUB No. 5774, AR Bank# 378, no carbapenemase genes, read-out: MIC): ≤ 0.06 µg/mL | MIC (Enterobacterales; Escherichia coli, KUB No. 5779, AR Bank# 433, no carbapenemase genes, read-out: MIC): ≤ 0.06 µg/mL | MIC (Enterobacterales; Escherichia coli, KUB No. 5780, AR Bank# 434, no carbapenemase genes, read-out: MIC): ≤ 0.06 µg/mL | MIC (Enterobacterales; Escherichia coli, KUB No. 5781, AR Bank# 435, NDM-1, read-out: MIC): 32 µg/mL (≈ 83.4 µM)
